Read-outs that look alike come from different tables or passages of the source.
Target: T1, HIV-1 reverse transcriptase (RT) (HIV-1 M:B_HXB2R, UniProt P04585)
T1 construct: gene gag-pol; enzyme of the Colorimetric Reverse Transcriptase Assay kit (Roche); cut from the Gag-Pol polyprotein; with p51 RT
Assay type: biochemical
Conditions: n = 2
From the text: Colorimetric Reverse Transcriptase Assay (Roche) on HIV-1 reverse transcriptase (RT)

Row | Structure (SMILES) | IC50 [µM] | IC50 (control) [µM]
1 | NC[C@H](NC(=O)c1ccc(-c2ccc(C(F)(F)F)cn2)[nH]1)c1ncc(CO)s1 [NBD-14204] | 8.3 ± 1.2 | 
2 | NC[C@H](NC(=O)c1ccc(-c2cc(F)c(Cl)c(F)c2)[nH]1)c1nc(CO)c(CO)s1 [NBD-14208] | 5 ± 0.5 | 
3 | CC1(C)CC(NC(=O)C(=O)Nc2ccc(Cl)cc2)CC(C)(C)N1 [NBD-556, reference compound] |  | > 300

From article PMC9784924, “Antiviral Activity and Crystal Structures of HIV-1 gp120 Antagonists” (International Journal of Molecular Sciences, 2022)
